Measured values from patent publication US7420001B2 (Wyeth, priority 2003, dated 2008).
Like-named read-outs stand apart in the source and are kept apart here. Each block holds one compound with its values, some of them ahead of it.

Key:
MMP-13 = molecular target: T1, MMP-13 (Homo sapiens, UniProt P45452); test: In-vitro fluorescence assay of MMP-13 activity; type: biochemical
T1 construct: made in house

MMP-2 = molecular target: T2, MMP-2 (Homo sapiens, UniProt P08253); test: In-vitro fluorescence assay of MMP-2 activity; type: biochemical; conditions: recombinant human MMP-2; read-out: MMP-2 IC50
T2 construct: purchased Oncogene Research Products (Calbiochem) PF023
T2 sequence (P08253 110-660): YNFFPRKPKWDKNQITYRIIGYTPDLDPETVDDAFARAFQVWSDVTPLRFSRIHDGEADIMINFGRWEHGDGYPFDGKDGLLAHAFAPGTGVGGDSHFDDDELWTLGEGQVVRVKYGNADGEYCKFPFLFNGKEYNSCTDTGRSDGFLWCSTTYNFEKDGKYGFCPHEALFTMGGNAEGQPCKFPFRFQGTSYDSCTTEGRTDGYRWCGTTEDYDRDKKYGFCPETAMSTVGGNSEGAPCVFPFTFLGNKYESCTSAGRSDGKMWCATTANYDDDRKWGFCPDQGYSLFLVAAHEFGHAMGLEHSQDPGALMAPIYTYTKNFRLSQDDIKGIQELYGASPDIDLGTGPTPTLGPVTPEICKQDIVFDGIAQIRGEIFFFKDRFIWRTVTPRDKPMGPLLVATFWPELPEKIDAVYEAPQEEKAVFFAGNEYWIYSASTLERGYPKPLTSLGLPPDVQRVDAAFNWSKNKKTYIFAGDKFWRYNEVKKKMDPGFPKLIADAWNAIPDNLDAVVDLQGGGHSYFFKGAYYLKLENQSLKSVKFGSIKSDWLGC

MMP-12 = molecular target: T3, MMP-12 (Homo sapiens, UniProt P39900); test: In vitro fluorescence assay of MMP-12 activity; type: biochemical; conditions: recombinant human MMP-12
T3 construct: made in house
T3 sequence (P39900 106-280 limits assumed): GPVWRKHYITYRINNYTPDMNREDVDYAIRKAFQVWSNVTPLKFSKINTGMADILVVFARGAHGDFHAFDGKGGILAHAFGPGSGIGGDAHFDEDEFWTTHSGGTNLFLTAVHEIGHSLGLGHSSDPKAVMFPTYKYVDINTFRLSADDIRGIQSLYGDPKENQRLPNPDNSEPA

MMP-1 = molecular target: T4, MMP-1 (Homo sapiens, UniProt P03956)
T4 sequence (P03956 100-269 limits assumed): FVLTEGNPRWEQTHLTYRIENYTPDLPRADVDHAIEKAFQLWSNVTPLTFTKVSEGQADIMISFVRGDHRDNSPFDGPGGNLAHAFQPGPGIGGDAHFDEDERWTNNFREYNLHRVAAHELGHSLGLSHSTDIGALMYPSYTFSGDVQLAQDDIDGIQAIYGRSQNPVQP

MMP-14 = molecular target: T5, MMP-14 (Homo sapiens, UniProt P50281); test: In-vitro fluorescence assay of MMP-14 activity; type: biochemical
T5 construct: 20 kDa; purchased Chemicon International, Inc. CC 1041

[1] = recombinant human catalytic domain of MMP-13, read-out: MMP-13 IC50
[2] = recombinant human catalytic domain of MMP-14

SMILES: COCC#Cc1cccc2oc(C(=O)Nc3ccc(-c4ccc(S(=O)(=O)N[C@H](C(=O)O)C(C)C)cc4)cc3)c(C)c12 [Example 22, L-2-(4′-{[4-(3-Methoxy-prop-1-ynyl)-3-methyl-benzofuran-2-carbonyl]-amino}-biphenyl-4-sulfonylamino)-3-methyl-butyric acid]
- IC50 (MMP-13; [1]): 12 nM
- IC50 (MMP-2): 1940 nM
- IC50 (MMP-12): 137 nM

SMILES: Cc1c(C(=O)Nc2ccc(-c3ccc(S(=O)(=O)N[C@H](C(=O)O)C(C)C)cc3)cc2)oc2cccc(C#CCN(C)C)c12 [Example 31, L-2-(4′-{[4-(3-Dimethylamino-prop-1-ynyl)-3-methyl-benzofuran-2-carbonyl]-amino}-biphenyl-4-sulfonylamino)-3-methyl-butyric acid]
- IC50 (MMP-13; [1]): 16 nM
- IC50 (MMP-2): 1450 nM
- IC50 (MMP-12): 155 nM

SMILES: Cc1c(C(=O)Nc2ccc(-c3ccc(S(=O)(=O)N[C@@H](C(=O)O)C(C)C)cc3)cc2)oc2ccccc12 [Example 74, D-3-Methyl-2-{4′-[(3-methyl-benzofuran-2-carbonyl)-amino]-biphenyl-4-sulfonylamino}-butyric acid]
- IC50 (MMP-13; [1]): 13 nM
- IC50 (MMP-2): 93 nM
- IC50 (MMP-1): 28.3 µM
- IC50 (MMP-14; [2]): 0.029 µM

SMILES: CN(CC(=O)O)S(=O)(=O)c1ccc(-c2ccc(NC(=O)c3cc4ccccc4o3)cc2)cc1 [Example 79, N-({4′-[(1-Benzofuran-2-ylcarbonyl)amino]-1,1′-biphenyl-4-yl}sulfonyl)-N-methylglycine]
- IC50 (MMP-13; [1]): 40 nM
- IC50 (MMP-2): 35 nM
- IC50 (MMP-1): 500 µM
- IC50 (MMP-14; [2]): 24 µM

SMILES: CC(C)[C@@H](C(=O)O)N(CCN1CCOCC1)S(=O)(=O)c1ccc(-c2ccc(NC(=O)c3cc4ccccc4o3)cc2)cc1 [Example 82, N-({4′-[(1-Benzofuran-2-ylcarbonyl)amino]-1,1′-biphenyl-4-yl}sulfonyl)-N-(2-morpholin-4-ylethyl)-L-valine]
- IC50 (MMP-13; [1]): 18 nM
- IC50 (MMP-2): 30 nM
- IC50 (MMP-1): > 10 µM
- IC50 (MMP-14; [2]): > 60 µM

SMILES: Cc1c(C(=O)Nc2ccc(-c3ccc(S(=O)(=O)N[C@H](C(=O)O)C(C)C)cc3)cc2)oc2ccccc12 [Example 83, N-[(4′-{[(3-Methyl-1-benzofuran-2-yl)carbonyl]amino}-1,1′-biphenyl-4-yl)sulfonyl]-L-valine]
- IC50 (MMP-13; [1]): 5.9 nM
- IC50 (MMP-2): 259 nM
- IC50 (MMP-1): 24.3 µM
- IC50 (MMP-14; [2]): 12.4 µM

SMILES: Cc1c(C(=O)Nc2ccc(-c3ccc(S(=O)(=O)N[C@H](C(=O)O)C(C)C)cc3)cc2)oc2cccc(-c3ccccc3)c12 [Example 109, (S)-3-Methyl-2-{4′-[(3-methyl-4-phenyl-benzofuran-2-carbonyl)-amino]-biphenyl-4-sulfonylamino}-butyric acid]
- IC50 (MMP-13; MMP-13 IC50, recombinant human catalytic domain of MMP-13): 15 nM
- IC50 (MMP-2): 3650 nM
- IC50 (MMP-1): 11 µM
- IC50 (MMP-14; [2]): 7 µM

SMILES: Cc1c(C(=O)Nc2ccc(-c3ccc(S(=O)(=O)N[C@H](C(=O)O)C(C)C)cc3)cc2)oc2cccc(-c3cccc([N+](=O)[O-])c3)c12 [Example 110, (S)-3-Methyl-2-(4′-{[3-methyl-4-(3-nitro-phenyl)-benzofuran-2-carbonyl]-amino}-biphenyl-4-sulfonylamino)-butyric acid]
- IC50 (MMP-13; [1]): 17 nM
- IC50 (MMP-2): 2400 nM
- IC50 (MMP-1): 49.6 µM
- IC50 (MMP-14; [2]): 20 µM

SMILES: COc1c(Br)ccc2oc(C(=O)Nc3ccc(-c4ccc(S(=O)(=O)N[C@H](C(=O)O)C(C)C)cc4)cc3)c(C)c12 [Example 118, (S)-2-{4′-[(5-bromo-4-methoxy-3-methyl-benzofuran-2-carbonyl)-amino]-biphenyl-4-sulfonylamino}-3-methyl-butyric acid]
- IC50 (MMP-13; [1]): 2.3 nM
- IC50 (MMP-2): 1700 nM
- IC50 (MMP-1; read-out: MMP-1 IC50, recombinant human catalytic domain of MMP-1): 30 µM
- IC50 (MMP-14): 14.6 µM

SMILES: Cc1cc(C(=O)Nc2ccc(-c3ccc(S(=O)(=O)N[C@H](C(=O)O)C(C)C)cc3)cc2)nn1-c1ccccc1 [Example 168, (S)-3-Methyl-2-{4′-[(5-methyl-1-phenyl-1H-pyrazole-3-carbonyl)-amino]-biphenyl-4-sulfonylamino}-butyric acid]
- IC50 (MMP-13; [1]): 99 nM
- IC50 (MMP-2): 1290 nM
- IC50 (MMP-1): 60 µM
- IC50 (MMP-14; [2]): 36 µM

SMILES: CC(C)[C@H](NS(=O)(=O)c1ccc(-c2ccc(NC(=O)c3csc(-c4ccncc4)n3)cc2)cc1)C(=O)O [Example 169, (S)-3-Methyl-2-{4′-[(2-pyridin-4-yl-thiazole-4-carbonyl)-amino]-biphenyl-4-sulfonylamino}-butyric acid]
- IC50 (MMP-13; [1]): 75 nM
- IC50 (MMP-2): 1190 nM
- IC50 (MMP-1): 40.4 µM
- IC50 (MMP-14; [2]): 40 µM

SMILES: CC(C)[C@H](NS(=O)(=O)c1ccc(-c2ccc(NC(=O)c3cccs3)cc2)cc1)C(=O)O [Example 174, (S)-3-Methyl-2-{4′-[(thiophene-2-carbonyl)-amino]-biphenyl-4-sulfonylamino}-butyric acid]
- IC50 (MMP-13; [1]): 25 nM
- IC50 (MMP-2): 61 nM
- IC50 (MMP-1): 7.4 µM
- IC50 (MMP-14; [2]): 6.13 µM

Continued by falling IC50 (MMP-13; [1]), values first:

- IC50 (MMP-13; [1]): 11 nM
- IC50 (MMP-2): 5.7 nM
- IC50 (MMP-1): 3.09 µM
- IC50 (MMP-14; [2]): 2.91 µM
SMILES: CC(C)[C@H](NS(=O)(=O)c1ccc(-c2ccc(NC(=O)c3ccco3)cc2)cc1)C(=O)O [Example 175, (S)-2-{4′-[(Furan-2-carbonyl)-amino]-biphenyl-4-sulfonylamino}-3-methyl-butyric acid]

- IC50 (MMP-13; [1]): 9.5 nM
- IC50 (MMP-2): 15000 nM
- IC50 (MMP-12): 175 nM
SMILES: CC#Cc1cccc2oc(C(=O)Nc3ccc(-c4ccc(S(=O)(=O)N[C@H](C(=O)O)C(C)C)cc4)cc3)c(C)c12 [Example 21, L-3-Methyl-2-{4′-[(3-methyl-4-prop-1-ynyl-benzofuran-2-carbonyl)-amino]-biphenyl-4-sulfonylamino}-butyric acid]

- IC50 (MMP-13; [1]): 5.7 nM
- IC50 (MMP-2): 6 nM
- IC50 (MMP-1): 15 µM
- IC50 (MMP-14; [2]): 7.11 µM
SMILES: CC(C)[C@H](C(=O)O)N(C)S(=O)(=O)c1ccc(-c2ccc(NC(=O)c3cc4ccccc4o3)cc2)cc1 [Example 77, N-({4′-[(1-benzofuran-2-ylcarbonyl)amino]-1,1′-biphenyl-4-yl}sulfonyl)-N-methyl-D-valine]

- IC50 (MMP-13; [1]): 1.1 nM
- IC50 (MMP-2): 2.5 nM
- IC50 (MMP-14; [2]): 0.5 µM
SMILES: CC(C)[C@@H](NS(=O)(=O)c1ccc(-c2ccc(OCc3cc4ccccc4o3)cc2)cc1)C(=O)O [Example 141, D-2-[4′-(Benzofuran-2-ylmethoxy)-biphenyl-4-sulfonylamino]-3-methyl-butyric acid]

- IC50 (MMP-13; [1]): 0.7 nM
- IC50 (MMP-12): 1.1 nM
SMILES: CC(C)[C@@H](NS(=O)(=O)c1ccc(-c2ccc(NC(=O)c3nc4ccccc4s3)cc2)cc1)C(=O)O [Example 152, D-2-{4′-[(Benzothiazole-2-carbonyl)-amino]-biphenyl-4-sulfonylamino}-3-methyl-butyric acid]

- IC50 (MMP-13; [1]): 0.5 nM
- IC50 (MMP-2): 0.7 nM
- IC50 (MMP-1): 20 µM
- IC50 (MMP-14; [2]): 2 µM
SMILES: CC(C)[C@@H](NS(=O)(=O)c1ccc(-c2ccc(OC(=O)c3cc4ccccc4o3)cc2)cc1)C(=O)O [Example 135, Benzofuran-2-carboxylic acid 4′-(1-carboxy-2-methyl-propylsulfamoyl)-biphenyl-4-yl ester]

- IC50 (MMP-13; [1]): 0.5 nM
- IC50 (MMP-2): 14 nM
- IC50 (MMP-1): 40 µM
- IC50 (MMP-14; [2]): 17 µM
SMILES: CC(C)[C@H](NS(=O)(=O)c1ccc(-c2ccc(NC(=O)c3cc4c(ccc5ccccc54)o3)cc2)cc1)C(=O)O [Example 153, L-3-Methyl-2-{4′-[(naphtho[2,1-b]furan-2-carbonyl)-amino]-biphenyl-4-sulfonylamino}-butyric acid]
